For data set [1] the following is noted: cited from earlier work; for Solubility in water: water between pH 1 and 11.
For data set [2] the following is noted: physiologic pH range; cited from earlier work.
For data set [3] the following is noted: first clinical trials, similar daily doses; cited from earlier work.
A short description of data set [4]: Solubility of Enzalutamide in surfactants. It counts as physicochemical. As to the method: In the first reference test formulation, 12 mg of Enzalutamide was completely dissolved in 0.27 ml of Labrasol. In second reference test formulations 12 mg of Enzalutamide is completely dissolved in 0.27 ml of Tween 80. In third reference test formulation, 12 mg of Enzalutamide is completely dissolved in 0.27 ml of Tween 80 and 0.15 mg of HPMC has been added. It should be noted that solubility of Enzalutamide is about the same in Tween and in Labrasol ([…] of Enzalutamide per 1 ml of either Tween 80 or Labrasol). The three test formulations were dissolved in 15 ml of pH 6.8 phosphate buffer and Enzalutamide concentration was measured at time points from 10 to 360 minutes.

Regarding `CNC(=O)c1ccc(N2C(=S)N(c3cnc(C#N)c(C(F)(F)F)c3)C(=O)C23CCC3)cc1F` [ARN-509, 4-[7-[6-Cyano-5-(trifluoromethyl)pyridin-3-yl]-8-oxo-6-thioxo-5,7-diazaspiro[3.4]octan-5-yl]-2-fluoro-N-methylbenzamide], in data set [1], the “Solubility in N-methyl-2-pyrrolidone (NMP)” value was “soluble”, the “Solubility in absolute ethanol” value is listed as “sparingly soluble”, the Solubility in acetone entry is “soluble” and the Solubility in water result is on record as “practically insoluble”. The Ionisation state entry in data set [2] was “remain unionized”. Moreover, the “Effectiveness versus Enzalutamide” value in data set [3] is reported as “more effective than Enzalutamide”.

Consider `CNC(=O)c1ccc(N2C(=S)N(c3ccc(C#N)c(C(F)(F)F)c3)C(=O)C2(C)C)cc1F` [Enzalutamide, 4-{3-[4-Cyano-3-(trifluoromethyl)phenyl]-5,5-dimethyl-4-oxo-2-thioxoimidazolidin-1-yl}-2-fluoro-N-methylbenzamide], for which the “Solubility of Enzalutamide in Labrasol” value in data set [4] (Labrasol) is listed as “about 36 mg per 1 ml”. Besides, the “Solubility of Enzalutamide in Tween 80” value in data set [4] (Tween 80) is “about 36 mg per 1 ml”. In data set [1], the “Solubility in N-methyl-2-pyrrolidone (NMP)” value is recorded as “soluble”, the “Solubility in absolute ethanol” value was “sparingly soluble”, the Solubility in acetone result was “soluble” and the Solubility in water result was “practically insoluble”. Also, the Ionisation state entry in data set [2] was “remain unionized”.

Values taken from patent US20200163882A1, “Solid Pharmaceutical Compositions Of Androgen Receptor Antagonists” (Lek Pharmaceuticals d.d., priority 2014, published 2020).
